Data taken from US6391325B1, “Use of nitrogen-containing complexing agents for deodorization and antimicrobial treatment of the skin and textile fibre materials” (Ciba Specialty Chemicals Corporation, priority 1996, dated 2002).

How the values were obtained:
[1] = test system: Corynebacterium xerosis ATCC 373; assay: Agar diffusion test (caso-agar, stamped-out holes); type: cell-based; settings: for Inhibitory aureola diameter Cory. xerosis ATTC 373: 10000 ppm, 100 μl per hole in double-distilled water, 37° C. for 2 days, two values per cell
Experimental: (§1) Test method: An agar diffusion test is carried out with the following modifications: Medium: casein-soya flour peptone agar (caso-agar) Test organisms: Corynebacterium xerosis ATCC 373 Corynebacterium xerosis ATCC 7711 Corynebacterium minutissimum ATCC 23358 Procedure: 500 ml of caso-agar are innoculated with 3.5 ml of an overnight culture of the bacteria, diluted 1:100, and caso plates (18 ml) are covered with a layer of about 5 ml of the bacteria-containing agar. […] Each stamped-out hole is filled with in each case 100 μl of a test substance dilution and the plates are incubated at 37° C. for 2 days. Double-distilled water is employed as the solvent for all the substances. In the case of […], the pH is adjusted to 3.3 by addition of 1 N NaOH. Chemically prepared S,S-EDDS is adjusted to the pH of 5.6 by addition of 1 N NaOH. Controls: Double-distilled water

[2] = test system: Corynebacterium xerosis ATCC 7711; assay: Agar diffusion test (caso-agar, stamped-out holes); type: cell-based; settings: 10000 ppm, 100 μl per hole in double-distilled water, 37° C. for 2 days; two values per cell
Experimental: as §1

SMILES | Inhibitory aureola diameter Cory. xerosis ATTC 373 [1] | bacteriostatic action against Corynebacterium xerosis ([1]; summary in words of Table 1 (both strains)) | Inhibitory aureola diameter Cory. xerosis ATTC 7711 [2]
O=C(O)CN(CCN(CC(=O)O)CC(=O)O)CC(=O)O [EDTA, ethylenediaminetetraacetic acid, reference compound] | 5/5 | pronounced bacteriostatic action | 2/2
O=C(O)C[C@H](NCCN[C@@H](CC(=O)O)C(=O)O)C(=O)O [R,R-EDDS, ethylenediaminedisuccinic acid] | 15/15 |  | 
O=C(O)C[C@H](NCCN[C@@H](CC(=O)O)C(=O)O)C(=O)O [S,S-EDDS (prepared by fermentation), (S,S)-N,N′-ethylenediaminedisuccinic acid] | 10/10^1 |  | 15/15^1
